Molecular target: Neuronal acetylcholine receptor subunit alpha-7 (Homo sapiens, UniProt P36544)
Assay: Agonist activity at human alpha7 nAChR expressed in xenopus oocytes preincubated for 10 mins followed by acetylcholine addition by patch clamp electrophysiological assay

Chain of Neuronal acetylcholine receptor subunit alpha-7 (P36544 whole entry): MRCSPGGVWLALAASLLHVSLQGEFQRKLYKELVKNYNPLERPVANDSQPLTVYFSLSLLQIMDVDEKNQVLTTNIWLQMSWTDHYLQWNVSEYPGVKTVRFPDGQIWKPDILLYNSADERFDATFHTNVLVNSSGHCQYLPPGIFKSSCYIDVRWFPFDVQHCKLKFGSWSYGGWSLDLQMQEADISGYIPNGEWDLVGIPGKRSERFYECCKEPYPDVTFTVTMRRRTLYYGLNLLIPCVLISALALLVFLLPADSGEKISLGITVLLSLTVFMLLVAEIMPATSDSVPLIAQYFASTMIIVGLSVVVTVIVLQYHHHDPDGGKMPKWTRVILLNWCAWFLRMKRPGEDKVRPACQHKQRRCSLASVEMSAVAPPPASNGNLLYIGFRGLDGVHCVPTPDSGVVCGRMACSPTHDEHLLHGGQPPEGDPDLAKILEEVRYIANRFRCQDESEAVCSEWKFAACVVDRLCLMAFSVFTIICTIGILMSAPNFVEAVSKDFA

## O=C(N[C@H]1CN2CCC1CC2)c1cc2cccc(Br)n2c1
  EC50: 1780 nM
